This test concerns the target T1, Tyrosine-protein phosphatase non-receptor type 22 (Homo sapiens) (UniProt Q9Y2R2).
T1 sequence (whole entry): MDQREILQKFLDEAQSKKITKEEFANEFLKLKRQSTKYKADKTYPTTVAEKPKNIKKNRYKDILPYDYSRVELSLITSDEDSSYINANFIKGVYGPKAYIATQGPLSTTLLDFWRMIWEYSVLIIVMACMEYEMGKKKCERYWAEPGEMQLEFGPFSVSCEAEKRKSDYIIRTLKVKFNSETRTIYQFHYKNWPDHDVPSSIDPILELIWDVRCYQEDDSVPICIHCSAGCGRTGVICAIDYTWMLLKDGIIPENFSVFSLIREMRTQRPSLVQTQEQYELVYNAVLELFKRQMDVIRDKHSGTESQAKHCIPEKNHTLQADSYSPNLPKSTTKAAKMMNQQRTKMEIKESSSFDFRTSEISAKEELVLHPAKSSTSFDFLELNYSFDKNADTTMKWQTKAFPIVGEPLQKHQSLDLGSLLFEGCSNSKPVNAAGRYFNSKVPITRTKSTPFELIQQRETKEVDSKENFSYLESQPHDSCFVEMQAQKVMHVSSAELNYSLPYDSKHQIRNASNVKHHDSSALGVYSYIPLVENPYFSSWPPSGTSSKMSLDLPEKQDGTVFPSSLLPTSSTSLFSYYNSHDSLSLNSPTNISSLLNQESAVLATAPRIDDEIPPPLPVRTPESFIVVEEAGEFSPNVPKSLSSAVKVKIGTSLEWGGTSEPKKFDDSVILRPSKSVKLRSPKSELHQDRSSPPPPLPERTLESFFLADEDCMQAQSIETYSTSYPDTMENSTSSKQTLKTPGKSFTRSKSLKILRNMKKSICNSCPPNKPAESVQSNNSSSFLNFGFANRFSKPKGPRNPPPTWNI
In words: Reversible binding affinity to N-terminal His-tagged LYP catalytic domain (1 to 294 residues) (unknown origin) expressed in Escherichia coli BL21 (DE3) cells using pNPP as substrate incubated for 10 to 90 mins by absorbance based assay. Conditions: time 10-90 min.

The structures appear in SMILES notation. Activity calls are given as the source filed them. No cut-off for these calls is given here.

With `O=C(O)c1cc2cc(N(Cc3ccc(OCc4ccccc4)cc3)S(=O)(=O)c3ccc(-c4ccccc4)cc3)ccc2o1`, the outcome was Active.

The values are drawn from ChEMBL document CHEMBL5620412, “Discovery of benzofuran-2-carboxylic acid derivatives as lymphoid tyrosine phosphatase (LYP) inhibitors for cancer immunotherapy” (Eur J Med Chem, 2023).
